Source: US20220213524A1, “KINASE SCREENING ASSAYS” (University of Newcastle upon Tyne, priority 2019, published 2022)

Legend:
Assay type in all cases: cell-based
[1] = system: INCENP S446ph; experiment: Immunofluorescence microscopy and high content imaging of INCENP S446ph after acute kinase inhibition in nocodazole-arrested mitotic cells; conditions: nocodazole-arrested mitotic HeLa cells, MG132 included
Source text: (§1) To confirm that Cyclin B1-Cdk1 was a bona fide kinase for INCENP S446, the inventors first conducted in vitro kinase assays. Indeed, Cyclin B1-Cdk1 efficiently phosphorylated S446 on a recombinant INCENP fragment containing residues 369-583, but not the TSS motif (S893/S894) in recombinant INCENP residues 825-918. In contrast, Aurora B was able to phosphorylate its known target, the TSS motif of INCENP, but not S446 (FIG. 4B). Furthermore, INCENP immunoprecipitated from nocodazole-arrested mitotic cells was recognized by the INCENP S446ph antibody, and this phosphorylation was sensitive to the Cdk inhibitor Roscovitine (FIG. 14). However, determining the direct substrates of Cyclin B1-Cdk1 in cells is complicated because inhibition of Cdk1 prevents mitotic entry and/or forces mitotic exit, leading to indirect effects on multiple kinase substrates. […] Aurora B relocates to the spindle midzone at the end of mitosis so, as an additional way to focus on cells still in mitosis, the inventors analyzed only cells in which Aurora B remained on chromosomes. […] Also consistent with Cyclin B1-Cdk1 being the kinase responsible, INCENP S446ph was detected on chromosomes in mitotic cells from early mitosis until metaphase when Cyclin B1-Cdk is active, but was lost at anaphase when Cyclin B is degraded (FIG. 4D). […]

[2] = system: INCENP TSSph; experiment: Immunofluorescence microscopy and high content imaging of INCENP TSSph after acute kinase inhibition in nocodazole-arrested mitotic cells; conditions: over 9 minutes; nocodazole-arrested mitotic HeLa cells, MG132 included
Source text: as §1

[3] = system: INCENP S446ph; experiment: INCENP immunoprecipitation from nocodazole-arrested mitotic HeLa 1C8 cells and immunoblotting with INCENP S446ph antibody; conditions: 100 μM, 2 h, with 20 μM MG132; nocodazole-arrested mitotic HeLa 1C8 cells; immunoblot
Method: HeLa 1C8 cells (Dai et al., 2005) were treated with 0.5 μg/ml nocodazole for 8 h. After collecting mitotic cells by “shake off” and replating, either 100 μM Roscovitine or DMSO (vehicle control) was added together with 20 μM MG132 in the continued presence of nocodazole. After 2 h, cell lysates were prepared in 50 mM Tris, 0.3 M NaCl, 0.5% Triton X-100, 10 mM MgCl2, 5 mM EDTA, 1 mM dithiothreitol, 1 mM PMSF, 0.1 μM okadaic acid, 10 mM NaF, 20 mM β-glycerophosphate, 0.25 U/μl benzonase nuclease, cOmplete™ Mini EDTA-free Protease Inhibitor and subjected to immunoprecipitation with rabbit anti-INCENP and Dynabeads Protein G (ThermoFisher). After washing, bound proteins were eluted by boiling in SDS-PAGE sample buffer.
SDS-PAGE was carried out using the NuPAGE Bis-Tris system (ThermoFisher). Proteins were transferred onto PVDF membranes using standard techniques. Membranes were blocked with 2.5% milk in PBS, 0.1% Tween20 for 1 h, then with primary antibodies in 2.5% milk, PBS, 0.1% Tween20 overnight at 4° C. After washing 3 times with PBS, 0.1% Tween20, they were incubated for 1 h with secondary antibodies in 2.5% milk, PBS, 0.1% Tween20, washed three times with PBS, 0.1% Tween20 and once with PBS, before development using ECL substrate (Pierce) and exposure to X-ray film. Stripping of immunoblots was carried out with Restore Western Blot Stripping Buffer (ThermoFisher).

SMILES	reduction in intensity of INCENP S446ph ([1]; over 9 minutes, only cells with Aurora B on chromosomes) [%]	effect on INCENP TSSph (Aurora B phosphorylation site) [2]	sensitivity of INCENP S446 phosphorylation to inhibitor [3]	effect on INCENP S446ph ([1]; over the same time period (9 minutes))
O=C1NC(=NCc2cccs2)S/C1=C\c1ccc2ncccc2c1 [RO-3306]	50	unaffected	–	–
CC[C@H](CO)Nc1nc(NCc2ccccc2)c2ncn(C(C)C)c2n1 [Roscovitine]	–	–	sensitive	–
COc1cc2c(Nc3ccc(NC(=O)c4ccccc4)cc3)ncnc2cc1OCCCN1CCOCC1 [ZM447439]	–	rapid decline	–	did not influence
